Measured values: EP0547231B1, “PHOSPHOLIPASE A2 INHIBITOR” (SHIONOGI & CO., LTD., priority 1991, dated 1993)
Structures can show the parent of a compound that is named as a salt.

Target: T1, PLA2 (phospholipase A2) (Rattus norvegicus, UniProt P14423)
T1 construct: from tissue; host or cells: rat platelets
T1 sequence (P14423 22-146): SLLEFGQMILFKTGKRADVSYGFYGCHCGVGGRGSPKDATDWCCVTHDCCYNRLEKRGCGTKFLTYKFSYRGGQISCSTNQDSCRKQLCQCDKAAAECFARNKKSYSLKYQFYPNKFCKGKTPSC
Test: Phospholipase A2 inhibitory activity (release of free fatty acid from 14C-labelled phosphatidylethanolamine)
Format: biochemical
Conditions: PLA2 from rat platelets; CaCl2 (3 mM) in Tris-buffer (0.1 M, pH 7.4); 37 °C for 20 minutes
Description: The compounds of the present invention were tested for their Phospholipase A2 inhibitory activity by the following procedure.
1-Palmitoyl-2-[1-^14C]-linoleoyl L-3-Phosphatidylethanolamine (Amersham, Inc., 59 mCi/mmol) were diluted with L-α-phosphatidylethanolamine (Sigma, Co., from […]) [2,000 dpm/nmol], and the dilution was sonicated. The resultant dilution was used as a substrate. The PLA2 (phospholipase A2) which was used in the test was from rat platelets. The PLA2 and the substrate preparation were added to a solution of CaCl2 (3 mM) in Tris-buffer (0.1 M, pH 7.4), and the mixture was allowed to react at 37 °C for 20 minutes. Then, the reaction was terminated by adding 1.25 ml of Dole's reagent to the reaction mixture and stirring immediately the resultant mixture. To the mixture was added 0.5 ml of distilled water and 0.8 ml of n-heptane, and the mixture was stirred, centrifuged, and the supernatant was taken into another tube. To this supernatant were added an additional 0.8 ml of n-heptane and silica gel, and the mixture was stirred, centrifuged, and the supernatant was taken into vials. Toluene cocktail was added to the vials. The amount of free fatty acid released by PLA2 was determined using a liquid scintillation counter.
Inhibitory activity (%) was estimated by the formula: [(DPM value at the addition of the inhibitor - DPM value without PLA2) / (DPM value with only PLA2 - DPM value without PLA2)] × 100.

| IC50 [µM] | Structure (SMILES) |
| --- | --- |
| 0.12 | COc1ccc([S+]([O-])c2ccc(OC)c(C(=O)Oc3c(C)c(C)c(C(=O)Oc4c(C)c(C)c(C(=O)O)c(OC)c4C)c(OC)c3C)c2)cc1C(=O)Oc1c(C)c(C)c(C(=O)Oc2c(C)c(C)c(C(=O)O)c(OC)c2C)c(OC)c1C [Compound 104c, Bis[3-[4'-[(4''-carboxy-3''-methoxy-2'',5'',6''-trimethyl)phenoxycarbony]-3'-methoxy-2',5',6'-trimethyl]-phenoxycarbony-4-methoxyphenyl] sulfoxide] |
| 2.1 | COc1ccc(Sc2ccc(OC)c(C(=O)Oc3c(C)c(C)c(C(=O)Oc4c(C)c(C)c(C(=O)O)c(OC)c4C)c(OC)c3C)c2)cc1C(=O)O [Compound 108] |
| 3.4 | COc1ccc(Oc2ccc(OC)c(C(=O)Oc3c(C)c(C)c(C(=O)O)c(OC)c3C)c2)cc1C(=O)Oc1c(C)c(C)c(C(=O)O)c(OC)c1C [Compound 110a, Bis[3-[4'-carboxy-3'-methoxy-2',5',6'-trimethylphenoxycarbonyl)-4-methoxyphenyl] ether] |
| 2.5 | COc1ccc(Sc2ccc(OC)c(C(=O)Oc3c(C)c(C)c(C(=O)O)c(OC)c3C)c2)cc1C(=O)Oc1c(C)c(C)c(C(=O)O)c(OC)c1C [Compound 110b, Bis[3-(4'-carboxy-3'-methoxy-2',5',6'-trimethylphenoxycarbonyl)-4-methoxyphenyl] sulfide] |
| 0.042 | COc1ccc(Oc2ccc(OC)c(C(=O)Oc3c(C)c(C)c(C(=O)Oc4c(C)c(C)c(C(=O)O)c(OC)c4C)c(OC)c3C)c2)cc1C(=O)Oc1c(C)c(C)c(C(=O)Oc2c(C)c(C)c(C(=O)O)c(OC)c2C)c(OC)c1C [Compound 120] |
| 0.33 | COc1c(C)c(OC(=O)c2c(C)c(C)c(OC(=O)/C=C/C(=O)Oc3c(C)c(C)c(C(=O)Oc4c(C)c(C)c(C(=O)O)c(OC)c4C)c(OC)c3C)c(C)c2OC)c(C)c(C)c1C(=O)O [Compound 121, Trans-1,2-bis[4'-(4''-carboxy-3''-methoxy-2'',5'',6''-trimethylphenoxycarbonyl)-3^'-methoxy-2',5',6'-trimethylphenoxycarbony] ethene] |
| 0.04 | COc1c(C)c(OC(=O)c2c(C)c(C)c(OC(=O)CCC(=O)Oc3c(C)c(C)c(C(=O)Oc4c(C)c(C)c(C(=O)O)c(OC)c4C)c(OC)c3C)c(C)c2OC)c(C)c(C)c1C(=O)O [Compound 122, 1,2-Bis[4'-[4''-carboxy-3''-methoxy-2'',5'',6''-trimethylphenoxycarbonyl)-3'-methoxy-2',5',6'-trimethylphenoxycarbony] ethane] |

More lines, now with the values behind:

| Structure (SMILES) | IC50 [µM] |
| --- | --- |
| COc1c(C)c(OCc2ccccc2)c(C)c(C)c1C(=O)O [Compound 8] | > 330 |
| COc1c(C)c(O)c(C)c(C)c1C(=O)O [Compound 9] | > 480 |
| COc1c(C)c(OC)c(C(=O)Oc2c(C)c(C)c(C(=O)Oc3c(C)c(C)c(C(=O)O)c(OC)c3C)c(OC)c2C)c(C)c1Cc1c(C)c(C(=O)Oc2c(C)c(C)c(C(=O)Oc3c(C)c(C)c(C(=O)O)c(OC)c3C)c(OC)c2C)c(OC)c(C)c1OC [Compound 44, Bis[5-[4'-(4''-carboxy-3''-methoxy-2'',5'',6''-trimethylphenoxycarbonyl)-3'-methoxy-2',5',6',-trimethylphenoxycarbonyl]-2,4-dimethoxy-3,6-dimethylphenyl] methane] | 0.13 |
| COc1c(C)c(OC)c(C(=O)O)c(C)c1Cc1c(C)c(C(=O)Oc2c(C)c(C)c(C(=O)Oc3c(C)c(C)c(C(=O)O)c(OC)c3C)c(OC)c2C)c(OC)c(C)c1OC [Compound 48] | 3 |
| COc1c(C)c(OC)c(C(=O)Oc2c(C)c(C)c(C(=O)O)c(OC)c2C)c(C)c1Cc1c(C)c(C(=O)Oc2c(C)c(C)c(C(=O)O)c(OC)c2C)c(OC)c(C)c1OC [Compound 50] | 4.6 |
| COc1c(C)c(OC(=O)c2c(C)c(C)c(OC(=O)c3cccc(C(=O)Oc4c(C)c(C)c(C(=O)Oc5c(C)c(C)c(C(=O)O)c(OC)c5C)c(OC)c4C)c3)c(C)c2OC)c(C)c(C)c1C(=O)O [Compound 52] | 0.16 |
| COc1c(C)c(OC(=O)c2c(C)c(C)c(OC(=O)c3cc(=O)cc(C(=O)Oc4c(C)c(C)c(C(=O)Oc5c(C)c(C)c(C(=O)O)c(OC)c5C)c(OC)c4C)o3)c(C)c2OC)c(C)c(C)c1C(=O)O [Compound 54] | 0.88 |
| COc1cc(OC)c(C(=O)Oc2c(C)c(C)c(C(=O)Oc3c(C)c(C)c(C(=O)O)c(OC)c3C)c(OC)c2C)cc1Oc1cc(C)c(OC)c(C(=O)Oc2c(C)c(C)c(C(=O)Oc3c(C)c(C)c(C(=O)O)c(OC)c3C)c(OC)c2C)c1 [Compound 56] | 0.035 |
| CCCCOC(=O)c1cc(Sc2ccc(OC)c(C(=O)Oc3c(C)c(C)c(C(=O)O)c(OC)c3C)c2)ccc1OC [Compound 59, n-Butyl 3-[3'-(4''-carboxy-3''-methoxy-2'',5'',6''-trimethylphenoxycarbonyl)-4'-methoxyphenyl]-thio-6-methoxybenzoate] | 1.45 |
| Cc1c(O)c(Cc2c(C)c(C(=O)Oc3c(C)c(C)c(C(=O)Oc4c(C)c(C)c(C(=O)O)c(O)c4C)c(O)c3C)c(O)c(C)c2O)c(C)c(C(=O)Oc2c(C)c(C)c(C(=O)Oc3c(C)c(C)c(C(=O)O)c(O)c3C)c(O)c2C)c1O [Compound 62, Bis[5-[4'-(4''-carboxy-3''-hydroxy-2'',5'',6''-trimethylphenoxycarbonyl)-3'-hydroxy-2',5',6'-trimethylphenoxycarbonyl]-2,4-dihydroxy-3,6-dimethylphenyl] methane] | 0.95 |
| COc1c(C)c(OC)c(C(=O)Oc2cc(C)c(C(=O)Oc3c(C)c(C)c(C(=O)Oc4c(C)c(C)c(C(=O)O)c(OC)c4C)c(OC)c3C)c(O)c2C)c(C)c1Oc1ccc(C[C@H](N)C(=O)O)cc1 [Compound 74, [5-[4'-[4''-(4'''-Carboxy-3'''-methoxy-2''',5''',6'''-trimethylphenoxycarbony)-3''-methoxy-2'',5'',6''-trimethylphenoxycarbony]-3'-hydroxy-2',5'-dimethylphenoxycarbony]-2,4-dimethoxy-3,6-dimethylphenyl] [4''''-(2'''''-amino-2'''''-carboxyethyl)phenyl] ether trifluoroacetate] | 0.07 |
| COc1c(C)c(OC)c(C(=O)Oc2c(C)c(O)cc(C)c2C(=O)Oc2c(C)c(C)c(C(=O)Oc3c(C)c(C)c(C(=O)O)c(OC)c3C)c(OC)c2C)c(C)c1Oc1ccc(C[C@H](N)C(=O)O)cc1 [Compound 77, [5-[6'-[4''-(4'''-Carboxy-3'''-methoxy-2''',5''',6'''-trimethylphenoxycarbony)-3''-methoxy-2'',5'',6''-trimethylphenoxycarbony]-3'-hydroxy-2',5'-dimethylphenoxycarbony]-2,4-dimethoxy-3,6-dimethylphenyl] [4''''-(2'''''-amino-2'''''-carboxyethyl)phenyl] ether trifluoroacetate] | 0.34 |
| COc1ccc(Sc2ccc(OC)c(C(=O)Oc3c(C)c(C)c(C(=O)Oc4c(C)c(C)c(C(=O)O)c(OC)c4C)c(OC)c3C)c2)cc1C(=O)Oc1c(C)c(C)c(C(=O)Oc2c(C)c(C)c(C(=O)O)c(OC)c2C)c(OC)c1C [Compound 104a, Bis[3-[4'-[(4''-carboxy-3''-methoxy-2'',5'',6''-trimethyl)phenoxycarbony]-3'-methoxy-2',5',6'-trimethyl]-phenoxycarbony-4-methoxyphenyl] sulfide] | 0.049 |
| COc1ccc(S(=O)(=O)c2ccc(OC)c(C(=O)Oc3c(C)c(C)c(C(=O)Oc4c(C)c(C)c(C(=O)O)c(OC)c4C)c(OC)c3C)c2)cc1C(=O)Oc1c(C)c(C)c(C(=O)Oc2c(C)c(C)c(C(=O)O)c(OC)c2C)c(OC)c1C [Compound 104b, Bis[3-[4'-[(4''-carboxy-3''-methoxy-2'',5'',6''-trimethyl)phenoxycarbony]-3'-methoxy-2',5',6'-trimethyl]-phenoxycarbony-4-methoxyphenyl] sulfone] | 0.05 |
